Source: patent US12404244B2, “Pan-KIT kinase inhibitor having quinoline structure and application thereof” (Tarapeutics Science Inc., priority 2018, dated 2025)
Read-outs that look alike come from different tables or passages of the source.

Assays:
TEL-KIT/T670I-BaF3 = test: Proliferation of TEL-KIT/T670I-BaF3 cells (CCK-8); assay type: cell-based, mouse; settings: Mus musculus, read-out: GI50 TEL-KIT/T670I-BaF3
Description: (§1) Compounds as provided herein were further evaluated for their inhibitory effects on proliferation of cancer cells by testing their effects on growth of cancer cells. In this example the following cells were used: primary mouse B cells BaF3 (purchased from ATCC), GIST-T1 cells of the human gastrointestinal stromal tumor cell line (expressing wild-type KIT gene) (purchased from Cosmo Bio Co., Ltd. (Japan)). The present lab further constructed and used the following: mouse Tel-Kit-BaF3 (stably expressing KIT wild-type kinase), mouse Tel-Kit/T670I-BaF3 (stably expressing KIT T670I mutant kinase), mouse Tel-Kit/V559A-BaF3 (stably expressing KIT V559A mutant kinase), mouse Tel-Kit/V559D-BaF3 (stably expressing KIT V559D mutant kinase), mouse Tel-Kit/V559G-BaF3 (stably expressing KIT V559G mutant kinase), mouse Tel-Kit/V560D-BaF3 (stably expressing KIT V560D mutant kinase), mouse Tel-Kit/L576P-BaF3 (stably expressing KIT L576P mutant kinase), mouse Tel-Kit/V654A-BaF3 (stably expressing KIT V654A mutant kinase), mouse Tel-Kit/V654A/V559D-BaF3 (stably expressing KIT V654A V559D mutant kinase), mouse Tel-Kit/T670E-BaF3 (stably expressing KIT T670E mutant kinase), mouse Tel-Kit/T670I/V559D-BaF3 (stably expressing KIT T670I V559D mutant kinase), mouse Tel-Kit/S709F-BaF3 (stably expressing KIT S709F mutant kinase), mouse Tel-Kit/D816E-BaF3 (stably expressing KIT D816E mutant kinase), mouse Tel-Kit/D816H-BaF3 (stably expressing KIT D816H mutant kinase), mouse Tel-Kit/D820E-BaF3 (stably expressing KIT D820E mutant kinase), mouse Tel-Kit/D820G-BaF3 (stably expressing KIT D820G mutant kinase), mouse Tel-Kit/D820Y-BaF3 (stably expressing KIT D820Y mutant kinase), mouse Tel-Kit/N822K-BaF3 (stably expressing KIT N822K mutant kinase), mouse Tel-Kit/Y823D-BaF3 (stably expressing KIT Y823D mutant kinase), mouse Tel-Kit/A829P-BaF3 (stably expressing KIT A829P mutant kinase), GIST-T1-T670I cells of the human gastrointestinal stromal tumor cell line (expressing KIT-T670I mutant gene). The above cell lines were constructed by: amplifying respectively the sequences of human KIT and various mutant kinase regions of KIT via PCR, inserting the fragments respectively into MSCV-Puro vectors having a N-terminal TEL fragment and/or a NPM fragment and/or a TPR fragment (purchased from Clontech), transfecting mouse BaF3 cells with the vectors by means of retrovirus to obtain stably transfected cells, removing the growth factor IL-3, and thereby eventually obtaining cell lines that depend on the transferred protein KIT or various mutants of KIT. The GIST-T1-T670I (expressing C-KIT-T670I mutant gene) cell line was constructed by our laboratory as follows: designing sgRNA that targeted a region around T670 of the KIT gene with CRISPR Design Tool (website: crispr.mit.edu, Zhang Feng Lab), cloning it into pSpCas9(BB)-2A-Puro vector; co-transfecting cells with the resultant vector and a single-stranded oligonucleotide having T670I site mutation that is near to T670, subjecting the resultant to antibiotics screening, followed by dilution, and monocellular culture in a 96-well plate; validating the site T670 of the cells by sequence detection via Sanger sequencing.

TEL-KIT/V559D-BaF3 = test: Proliferation of TEL-KIT/V559D-BaF3 cells (CCK-8); assay type: cell-based; settings: Mus musculus, read-out: GI50 TEL-KIT/V559D-BaF3
Description: as §1, with “The GIST-T1-T670I (expressing C-KIT-T670I mutant gene) cell line was constructed by our laboratory as follows: designing sgRNA that targeted a region around T670 of the KIT gene with CRISPR Design Tool (website: crispr.mit.edu, Zhang Feng Lab), cloning it into pSpCas9(BB)-2A-Puro vector; co-transfecting cells with the resultant vector and a single-stranded oligonucleotide having T670I site mutation that is near to T670, subjecting the resultant to antibiotics screening, followed by dilution, and monocellular culture in a 96-well plate; validating the site T670 of the cells by sequence detection via Sanger sequencing.” left out

TEL-KIT/V654A-BaF3 = test: Proliferation of TEL-KIT/V654A-BaF3 cells (CCK-8); assay type: cell-based; settings: Mus musculus, read-out: GI50 TEL-KIT/V654A-BaF3
Description: as §1, with “The GIST-T1-T670I (expressing C-KIT-T670I mutant gene) cell line was constructed by our laboratory as follows: designing sgRNA that targeted a region around T670 of the KIT gene with CRISPR Design Tool (website: crispr.mit.edu, Zhang Feng Lab), cloning it into pSpCas9(BB)-2A-Puro vector; co-transfecting cells with the resultant vector and a single-stranded oligonucleotide having T670I site mutation that is near to T670, subjecting the resultant to antibiotics screening, followed by dilution, and monocellular culture in a 96-well plate; validating the site T670 of the cells by sequence detection via Sanger sequencing.” left out

TEL-KIT/D820G-BaF3 = test: Proliferation of TEL-KIT/D820G-BaF3 cells (CCK-8); assay type: cell-based; settings: Mus musculus, read-out: GI50 TEL-KIT/D820G-BaF3
Description: as §1, with “The GIST-T1-T670I (expressing C-KIT-T670I mutant gene) cell line was constructed by our laboratory as follows: designing sgRNA that targeted a region around T670 of the KIT gene with CRISPR Design Tool (website: crispr.mit.edu, Zhang Feng Lab), cloning it into pSpCas9(BB)-2A-Puro vector; co-transfecting cells with the resultant vector and a single-stranded oligonucleotide having T670I site mutation that is near to T670, subjecting the resultant to antibiotics screening, followed by dilution, and monocellular culture in a 96-well plate; validating the site T670 of the cells by sequence detection via Sanger sequencing.” left out

TEL-KIT/N822K-BaF3 = test: Proliferation of TEL-KIT/N822K-BaF3 cells (CCK-8); assay type: cell-based; settings: Mus musculus, read-out: GI50 TEL-KIT/N822K-BaF3
Description: as §1, with “The GIST-T1-T670I (expressing C-KIT-T670I mutant gene) cell line was constructed by our laboratory as follows: designing sgRNA that targeted a region around T670 of the KIT gene with CRISPR Design Tool (website: crispr.mit.edu, Zhang Feng Lab), cloning it into pSpCas9(BB)-2A-Puro vector; co-transfecting cells with the resultant vector and a single-stranded oligonucleotide having T670I site mutation that is near to T670, subjecting the resultant to antibiotics screening, followed by dilution, and monocellular culture in a 96-well plate; validating the site T670 of the cells by sequence detection via Sanger sequencing.” left out

GIST-T1 = test: Proliferation of GIST-T1 cells (CCK-8); assay type: cell-based; settings: Homo sapiens, read-out: GI50 GIST-T1
Description: (§2) Compounds as provided herein were further evaluated for their inhibitory effects on proliferation of cancer cells by testing their effects on growth of cancer cells. In this example the following cells were used: primary mouse B cells BaF3 (purchased from ATCC), GIST-T1 cells of the human gastrointestinal stromal tumor cell line (expressing wild-type KIT gene) (purchased from Cosmo Bio Co., Ltd. (Japan)). The present lab further constructed and used the following: mouse Tel-Kit-BaF3 (stably expressing KIT wild-type kinase), mouse Tel-Kit/T670I-BaF3 (stably expressing KIT T670I mutant kinase), mouse Tel-Kit/V559A-BaF3 (stably expressing KIT V559A mutant kinase), mouse Tel-Kit/V559D-BaF3 (stably expressing KIT V559D mutant kinase), mouse Tel-Kit/V559G-BaF3 (stably expressing KIT V559G mutant kinase), mouse Tel-Kit/V560D-BaF3 (stably expressing KIT V560D mutant kinase), mouse Tel-Kit/L576P-BaF3 (stably expressing KIT L576P mutant kinase), mouse Tel-Kit/V654A-BaF3 (stably expressing KIT V654A mutant kinase), mouse Tel-Kit/V654A/V559D-BaF3 (stably expressing KIT V654A V559D mutant kinase), mouse Tel-Kit/T670E-BaF3 (stably expressing KIT T670E mutant kinase), mouse Tel-Kit/T670I/V559D-BaF3 (stably expressing KIT T670I V559D mutant kinase), mouse Tel-Kit/S709F-BaF3 (stably expressing KIT S709F mutant kinase), mouse Tel-Kit/D816E-BaF3 (stably expressing KIT D816E mutant kinase), mouse Tel-Kit/D816H-BaF3 (stably expressing KIT D816H mutant kinase), mouse Tel-Kit/D820E-BaF3 (stably expressing KIT D820E mutant kinase), mouse Tel-Kit/D820G-BaF3 (stably expressing KIT D820G mutant kinase), mouse Tel-Kit/D820Y-BaF3 (stably expressing KIT D820Y mutant kinase), mouse Tel-Kit/N822K-BaF3 (stably expressing KIT N822K mutant kinase), mouse Tel-Kit/Y823D-BaF3 (stably expressing KIT Y823D mutant kinase), mouse Tel-Kit/A829P-BaF3 (stably expressing KIT A829P mutant kinase), GIST-T1-T670I cells of the human gastrointestinal stromal tumor cell line (expressing KIT-T670I mutant gene). […]
(§3) The cells after incubation were detected using CCK-8 (purchased from MedChem Express, Shanghai, China) cell viability assay kit (CCK-8 may be reduced by dehydrogenase in living cells to a highly water-soluble yellow formazan product, and the amount of the resultant formazan is proportional to the number of living cells), the number of living cells were quantified with a microplate reader, and GI50 of the compounds and the control compounds were calculated (the results shown in Table 2 and Table 3).

GIST-T1/T670I = test: Proliferation of GIST-T1/T670I cells (CCK-8); assay type: cell-based; settings: Homo sapiens, read-out: GI50 GIST-T1/T670I
Description: as §2, §3

| GI50 (TEL-KIT/T670I-BaF3; 72 hours, CCK-8) | GI50 (TEL-KIT/V559D-BaF3; 72 hours, CCK-8) | GI50 (TEL-KIT/V654A-BaF3; 72 hours, CCK-8) | GI50 (TEL-KIT/D820G-BaF3; 72 hours, CCK-8) | GI50 (TEL-KIT/N822K-BaF3; 72 hours, CCK-8) | Compound | GI50 (TEL-KIT/T670I-BaF3; 72 h) | GI50 (TEL-KIT/V559D-BaF3; 72 h) | GI50 (TEL-KIT/V654A-BaF3; 72 h) | GI50 (TEL-KIT/D820G-BaF3; 72 h) | GI50 (TEL-KIT/N822K-BaF3; 72 h) | GI50 (GIST-T1; GISTT1, 72 h) | GI50 (GIST-T1/T670I; GISTT1, 72 h) | GI50 (GIST-T1; GISTT1, 72 hours, CCK-8) | GI50 (GIST-T1/T670I; GISTT1, 72 hours, CCK-8) |
| --- | --- | --- | --- | --- | --- | --- | --- | --- | --- | --- | --- | --- | --- | --- |
|  |  |  |  |  | COc1cc2nccc(Oc3ccc(NC(=O)Cc4ccc(C)c(C(F)(F)F)c4)cc3)c2cc1OC [Example 1, N-(4-((6,7-dimethoxyquinolin-4-yl)oxy)phenyl)-2-(4-methyl-3-(trifluoromethyl)phenyl)acetamide] | 14 nM | 4 nM | 110 nM | 9 nM | 69 nM | 5 nM | 16 nM |  |  |
| 4 nM | 6 nM | 320 nM | 9 nM | 26 nM | COc1cc2nccc(Oc3ccc(NC(=O)Cc4ccc(Cl)c(C(F)(F)F)c4)cc3)c2cc1OC [Example 2, N-(4-((6,7-dimethoxyquinolin-4-yl)oxy)phenyl)-2-(4-chloro-3-(trifluoromethyl)phenyl)-acetamide] |  |  |  |  |  |  |  | 6 nM | 11 nM |
| 21 nM | 1 nM | 5 nM | 389 nM | 384 nM | CCN(CC)CCNC(=O)c1c(C)[nH]c(/C=C2\C(=O)Nc3ccc(F)cc32)c1C [Sunitinib, reference compound] |  |  |  |  |  |  |  | 11 nM | 4 nM |
